Laboratory results as given in patent publication US20240226104A1, “PI3K INHIBITORS, NANOFORMULATIONS, AND USES THEREOF” (THE REGENTS OF THE UNIVERSITY OF MICHIGAN, priority 2021, published 2024).

Tested on: 3D multicellular tumor spheroids (4T1 cells and M2 macrophages derived from RAW264.7 cells)
Experiment: 3D multicellular tumor spheroids (MCTs) growth
Assay type: cell-based
Conditions: single drug 5 μM; combination 2.5 μM plus 2.5 μM; 14 days
Description: 3D multicellular tumor spheroids (MICs), 4T1 cells and M2 macrophages derived from RAW264.7 cells were mixed in the ratio of 7:3 and then seeded into an ultralow-attachment 96 well plate (Corning) at a density of 5,000 cells/well and cultured for 30 h to form the tumor spheroids. These tumor spheroids were separately incubated with 300 μL complete medium supplemented with PTX ([…]), gemcitabine (5 μM), doxorubicin (5 μM), and IPI-549 (5 μM) as well as the combination of IPI-549 and PTX (2.5 μM+[…]), IPI-549 and gemcitabine (2.5 μM+2.5 μM), and IPI-549 and doxorubicin (2.5 μM+2.5 μM) for 14 days. The volumes ([major axis]×[minor axis]^2/2) of the MTCs were monitored every other day using an Olympus IX83 motorized inverted microscope with cellSens Dimension software (Olympus), and images were captured using a CellInsight CX5 High-Content Screening (HCS) Platform (Thermo Fisher) at 4× magnification.

Nc1ccn([C@@H]2O[C@H](CO)[C@@H](O)C2(F)F)c(=O)n1 [gemcitabine]
inhibition of 3D MCTs growth: limited inhibition of 3D MCTs growth

C[C@H](NC(=O)c1c(N)nn2cccnc12)c1cc2cccc(C#Cc3cnn(C)c3)c2c(=O)n1-c1ccccc1 [IPI-549]
inhibition of 3D MCTs growth: limited inhibition of 3D MCTs growth

COc1cccc2c1C(=O)c1c(O)c3c(c(O)c1C2=O)C[C@@](O)(C(=O)CO)C[C@@H]3O[C@H]1C[C@H](N)[C@H](O)[C@H](C)O1 [doxorubicin]
inhibition of 3D MCTs growth: limited inhibition of 3D MCTs growth

CC(=O)O[C@H]1C(=O)[C@@]2(C)[C@H]([C@H](OC(=O)c3ccccc3)[C@]3(O)C[C@H](OC(=O)[C@H](O)[C@@H](NC(=O)c4ccccc4)c4ccccc4)C(C)=C1C3(C)C)[C@]1(OC(C)=O)CO[C@@H]1C[C@@H]2O [PTX, paclitaxel]
inhibition of 3D MCTs growth: limited inhibition of 3D MCTs growth
